From PubChem BioAssay (NCI)
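Values below derive from 48-hour exposures of cells grown in 96-well plates, with endpoints linearly interpolated between the two concentrations bracketing the appropriate inhibition level. GI50 marks 50% less growth. TGI denotes the concentration required for complete inhibition of growth.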

Key:
Assay in all cases: NCI-60 cell line screen, 48 h
OVCAR-8 ovarian = system: OVCAR-8 ovarian
SR leukemia = system: SR leukemia
HCT-116 colon = system: HCT-116 colon
SNB-75 CNS = system: SNB-75 CNS
RXF 393 renal = system: RXF 393 renal
K-562 leukemia = system: K-562 leukemia
HCT-15 colon = system: HCT-15 colon
SNB-19 CNS = system: SNB-19 CNS
SK-MEL-5 melanoma = system: SK-MEL-5 melanoma
OVCAR-3 ovarian = system: OVCAR-3 ovarian
NCI/ADR-RES ovarian = system: NCI/ADR-RES ovarian
NCI-H460 lung = system: NCI-H460 lung
UO-31 renal = system: UO-31 renal
UACC-62 melanoma = system: UACC-62 melanoma
HOP-62 NSCLC = system: HOP-62 NSCLC
TK-10 renal = system: TK-10 renal
NCI-H226 lung = system: NCI-H226 lung
UACC-257 melanoma = system: UACC-257 melanoma
SK-OV-3 ovarian = system: SK-OV-3 ovarian
MDA-MB-231 breast = system: MDA-MB-231 breast
M14 melanoma = system: M14 melanoma
786-0 renal = system: 786-0 renal
MDA-MB-435 = system: MDA-MB-435
SK-MEL-28 melanoma = system: SK-MEL-28 melanoma
SF-268 CNS = system: SF-268 CNS
CAKI-1 renal = system: CAKI-1 renal
DU-145 prostate = system: DU-145 prostate
SW-620 colon = system: SW-620 colon
KM12 colon = system: KM12 colon
SN12C renal = system: SN12C renal
MCF7 breast = system: MCF7 breast
OVCAR-5 ovarian = system: OVCAR-5 ovarian
MOLT-4 leukemia = system: MOLT-4 leukemia
SF-295 CNS = system: SF-295 CNS
T-47D breast = system: T-47D breast
HCC-2998 colon = system: HCC-2998 colon
RPMI-8226 leukemia = system: RPMI-8226 leukemia
HL-60(TB) leukemia = system: HL-60(TB) leukemia
A549 NSCLC = system: A549 NSCLC
A498 renal = system: A498 renal
LOX IMVI melanoma = system: LOX IMVI melanoma
SF-539 CNS = system: SF-539 CNS
NCI-H23 lung = system: NCI-H23 lung
BT-549 breast = system: BT-549 breast
NCI-H522 lung = system: NCI-H522 lung
COLO 205 colon = system: COLO 205 colon
HS 578T breast = system: HS 578T breast
MALME-3M melanoma = system: MALME-3M melanoma
PC-3 prostate = system: PC-3 prostate
CCRF-CEM leukemia = system: CCRF-CEM leukemia
SK-MEL-2 melanoma = system: SK-MEL-2 melanoma
IGROV1 ovarian = system: IGROV1 ovarian
ACHN renal = system: ACHN renal
HOP-92 NSCLC = system: HOP-92 NSCLC

Work on `Cc1nc2ccc(Nc3nc(Cl)nc(Nc4ccc(F)cc4)n3)cc2n1Cc1ccccc1` yielded a GI50 (OVCAR-8 ovarian) of 3.25 µM, a TGI (OVCAR-8 ovarian) of 14.1 µM and a GI50 (SR leukemia) of 3.79 µM. It also gave a TGI (SR leukemia) of 39.5 µM, a GI50 (HCT-116 colon) of 3.56 µM and a TGI (HCT-116 colon) of 13.6 µM. The GI50 (SNB-75 CNS) was 10.2 µM, the TGI (SNB-75 CNS) was 26.2 µM and the GI50 (RXF 393 renal) was 4.45 µM. It also gave a TGI (RXF 393 renal) of 21.5 µM, a GI50 (K-562 leukemia) of 3.43 µM and a TGI (K-562 leukemia) greater than 100 µM. It also gave a GI50 (HCT-15 colon) of 2.92 µM, a TGI (HCT-15 colon) of 10.4 µM and a GI50 (SNB-19 CNS) of 4.55 µM. It also gave a TGI (SNB-19 CNS) of 26.9 µM, a GI50 (SK-MEL-5 melanoma) of 4.19 µM and a TGI (SK-MEL-5 melanoma) of 15.1 µM. The GI50 (OVCAR-3 ovarian) was 4.06 µM, the TGI (OVCAR-3 ovarian) was 15 µM and the GI50 (NCI/ADR-RES ovarian) was 4.11 µM. It also gave a TGI (NCI/ADR-RES ovarian) of 18.5 µM, a GI50 (NCI-H460 lung) of 4.23 µM and a TGI (NCI-H460 lung) of 17.8 µM. The GI50 (UO-31 renal) was 2.85 µM, the TGI (UO-31 renal) was 12.2 µM and the GI50 (UACC-62 melanoma) was 3.06 µM. It also gave a TGI (UACC-62 melanoma) of 12.9 µM, a GI50 (HOP-62 NSCLC) of 10.7 µM and a TGI (HOP-62 NSCLC) of 30.4 µM. For the same molecule, the GI50 (TK-10 renal) was 18.1 µM, the TGI (TK-10 renal) was 44.4 µM and the GI50 (NCI-H226 lung) was 4.14 µM. It also gave a TGI (NCI-H226 lung) of 21.6 µM, a GI50 (UACC-257 melanoma) of 11.8 µM and a TGI (UACC-257 melanoma) of 28.9 µM. For the same molecule, the GI50 (SK-OV-3 ovarian) was 18.1 µM, the TGI (SK-OV-3 ovarian) was 66.8 µM and the GI50 (MDA-MB-231 breast) was 3.99 µM. For the same molecule, the TGI (MDA-MB-231 breast) was 20.4 µM, the GI50 (M14 melanoma) was 5.54 µM and the TGI (M14 melanoma) was 22 µM. For the same molecule, the GI50 (786-0 renal) was 5.18 µM, the TGI (786-0 renal) was 37 µM and the GI50 (MDA-MB-435) was 6.4 µM. It also gave a TGI (MDA-MB-435) of 23.1 µM, a GI50 (SK-MEL-28 melanoma) of 3.15 µM and a TGI (SK-MEL-28 melanoma) of 10.5 µM. It also gave a GI50 (SF-268 CNS) of 10.8 µM, a TGI (SF-268 CNS) of 46.8 µM and a GI50 (CAKI-1 renal) of 7.94 µM. For the same molecule, the TGI (CAKI-1 renal) was 35.2 µM, the GI50 (DU-145 prostate) was 9.44 µM and the TGI (DU-145 prostate) was 22.6 µM. For the same molecule, the GI50 (SW-620 colon) was 4.95 µM, the TGI (SW-620 colon) was 35 µM and the GI50 (KM12 colon) was 4.25 µM. The TGI (KM12 colon) was 17.6 µM, the GI50 (SN12C renal) was 5.22 µM and the TGI (SN12C renal) was 38.3 µM. The GI50 (MCF7 breast) was 2.71 µM, the TGI (MCF7 breast) was 12.4 µM and the GI50 (OVCAR-5 ovarian) was 14.7 µM. It also gave a TGI (OVCAR-5 ovarian) of 44.1 µM, a GI50 (MOLT-4 leukemia) of 3.92 µM and a TGI (MOLT-4 leukemia) of 18.1 µM. The GI50 (SF-295 CNS) was 1.9 µM, the TGI (SF-295 CNS) was 4.53 µM and the GI50 (T-47D breast) was 1.81 µM. The TGI (T-47D breast) was 4.58 µM, the GI50 (HCC-2998 colon) was 2.6 µM and the TGI (HCC-2998 colon) was 5.96 µM. For the same molecule, the GI50 (RPMI-8226 leukemia) was 2.05 µM, the TGI (RPMI-8226 leukemia) was 5.09 µM and the GI50 (HL-60(TB) leukemia) was 3.02 µM. The TGI (HL-60(TB) leukemia) was 7.6 µM, the GI50 (A549 NSCLC) was 11.3 µM and the TGI (A549 NSCLC) was 30.9 µM. It also gave a GI50 (A498 renal) of 13.2 µM, a TGI (A498 renal) of 41 µM and a GI50 (LOX IMVI melanoma) of 3.59 µM. The TGI (LOX IMVI melanoma) was 14.1 µM, the GI50 (SF-539 CNS) was 4.53 µM and the TGI (SF-539 CNS) was 17.4 µM. For the same molecule, the GI50 (NCI-H23 lung) was 7.16 µM, the TGI (NCI-H23 lung) was 25.2 µM and the GI50 (BT-549 breast) was 4 µM. For the same molecule, the TGI (BT-549 breast) was 18.8 µM, the GI50 (NCI-H522 lung) was 2.51 µM and the TGI (NCI-H522 lung) was 6.85 µM. The GI50 (COLO 205 colon) was 11.2 µM, the TGI (COLO 205 colon) was 26.5 µM and the GI50 (HS 578T breast) was 10.9 µM. It also gave a TGI (HS 578T breast) greater than 100 µM, a GI50 (MALME-3M melanoma) of 11.4 µM and a TGI (MALME-3M melanoma) of 24.6 µM. It also gave a GI50 (PC-3 prostate) of 7.11 µM, a TGI (PC-3 prostate) of 32.9 µM and a GI50 (CCRF-CEM leukemia) of 3.85 µM. It also gave a TGI (CCRF-CEM leukemia) greater than 100 µM, a GI50 (SK-MEL-2 melanoma) of 4.15 µM and a TGI (SK-MEL-2 melanoma) of 15 µM. The GI50 (IGROV1 ovarian) was 4.4 µM, the TGI (IGROV1 ovarian) was 20.8 µM and the GI50 (ACHN renal) was 3 µM. The TGI (ACHN renal) was 10.4 µM, the GI50 (HOP-92 NSCLC) was 2.3 µM and the TGI (HOP-92 NSCLC) was 9.23 µM.
